Columns and labels:
Assay type in all cases: in vivo
Kochia (Kochia scoparia) [1] = assay: Test A preemergence; settings: Bassia scoparia, pre-emergence, 240 h
Summary of the method: (§1)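 Visual injury, scored on a 0–100 scale relative to untreated controls, was recorded about 10 d after application. Treatments were a preemergence soil spray over planted seeds or a postemergence spray on plants at the one- to two-leaf stage, 2 to 10 cm tall, all in loam soil–sand blend in the greenhouse.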

[2] = system: barnyardgrass (Echinochloa crus-galli); assay: Test A preemergence; settings: Echinochloa crus-galli, pre-emergence, 240 h
Summary of the method: as §1

[3] = system: giant foxtail (Setaria faberii); assay: Test A preemergence; settings: Setaria faberi, pre-emergence, 240 h
Summary of the method: as §1

[4] = system: pigweed (Amaranthus retroflexus); assay: Test A preemergence; settings: Amaranthus retroflexus, pre-emergence, 240 h
[5] = system: ragweed (common ragweed, Ambrosia elatior); assay: Test A preemergence; settings: Ambrosia artemisiifolia, pre-emergence, 240 h
Summary of the method: as §1

[6] = system: ryegrass, Italian (Italian ryegrass, Lolium multiflorum); assay: Test A preemergence; settings: Lolium multiflorum, pre-emergence, 240 h
Summary of the method: as §1

[7] = system: Galium (catchweed bedstraw, Galium aparine); assay: Test A postemergence; settings: Galium, post-emergence, 240 h, read-out: Plant response rating, Galium
Summary of the method: as §1

Kochia (Kochia scoparia) [8] = assay: Test A postemergence; settings: Bassia scoparia, post-emergence, 240 h, read-out: Plant response rating, Kochia
Summary of the method: as §1

[9] = system: barnyardgrass (Echinochloa crus-galli); assay: Test A postemergence; settings: Echinochloa crus-galli, post-emergence, 240 h, read-out: Plant response rating, Barnyardgrass
Summary of the method: as §1

[10] = system: blackgrass (Alopecurus myosuroides); assay: Test A postemergence; settings: Alopecurus myosuroides, post-emergence, 240 h, read-out: Plant response rating, Blackgrass
Summary of the method: as §1

corn (Zea mays) = assay: Test A postemergence; settings: Zea mays, post-emergence, 240 h
Summary of the method: as §1

[11] = system: giant foxtail (Setaria faberii); assay: Test A postemergence; settings: Setaria faberi, post-emergence, 240 h, read-out: Plant response rating, Foxtail, Giant
Summary of the method: as §1

[12] = system: pigweed (Amaranthus retroflexus); assay: Test A postemergence; settings: Amaranthus retroflexus, post-emergence, 240 h, read-out: Plant response rating, Pigweed
Summary of the method: as §1

[13] = system: ragweed (common ragweed, Ambrosia elatior); assay: Test A postemergence; settings: Ambrosia artemisiifolia, post-emergence, 240 h, read-out: Plant response rating, Ragweed
Summary of the method: as §1

[14] = system: ryegrass, Italian (Italian ryegrass, Lolium multiflorum); assay: Test A postemergence; settings: Lolium multiflorum, post-emergence, 240 h, read-out: Plant response rating, Ryegrass, Italian
Summary of the method: as §1

[15] = system: wheat (Triticum aestivum); assay: Test A postemergence; settings: Triticum aestivum, post-emergence, 240 h, read-out: Plant response rating, Wheat
Summary of the method: as §1

[16] = system: barnyardgrass (Echinochloa crus-galli); assay: Test B flooded paddy test; settings: Echinochloa crus-galli, 250 g ai/ha, Flood; 0 to 100 scale where 0 is no effect and 100 is complete control; read-out: Barnyardgrass plant response rating
Summary of the method: (§2)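 Rating scale 0–100 (visual, vs untreated controls) after a 13–15 d greenhouse period; application to the flood layer, 3 cm above soil and maintained; plants at 2-leaf stage when treated.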

[17] = system: ducksalad (Heteranthera limosa); assay: Test B flooded paddy test; settings: Heteranthera limosa, 250 g ai/ha, Flood; 0 to 100 scale where 0 is no effect and 100 is complete control; read-out: Ducksalad plant response rating
Summary of the method: as §2

rice (Oryra sativa) = assay: Test B flooded paddy test; settings: Oryza sativa, 250 g ai/ha, Flood; 0 to 100 scale where 0 is no effect and 100 is complete control; read-out: Rice plant response rating
Summary of the method: as §2

[18] = system: sedge, umbrella (small-flower umbrella sedge, Cyperus difformis); assay: Test B flooded paddy test; settings: Cyperus difformis, 250 g ai/ha, Flood; 0 to 100 scale where 0 is no effect and 100 is complete control; read-out: Sedge, Umbrella plant response rating
Summary of the method: as §2

[19] = 125 g ai/ha, Postemergence, visual injury after approximately 10 d, 0 to 100 scale where 0 is no effect and 100 is complete control
[20] = 500 g ai/ha, postemergence, visual injury, 0 to 100 scale (0 no effect, 100 complete control), approx. 10 d

Cc1ccc([C@H]2CN(C)C(=O)[C@@H]2C(=O)Nc2ccccc2S(C)(=O)=O)cc1Cl [Compound 1018]
pest or weed control at 125 g/ha (Kochia (Kochia scoparia) [1]; 125 g ai/ha, Preemergence, visual injury rating after approximately 10 d, read-out: Kochia plant response rating (0 to 100 scale, 0 is no effect, 100 is complete control)): 0% | pest or weed control at 500 g/ha (Kochia (Kochia scoparia) [1]; 500 g ai/ha, preemergence, visual injury rating about 10 d after treatment, 0 to 100 scale (0 no effect, 100 complete control), read-out: Kochia plant response rating): 60% | pest or weed control at 125 g/ha ([2]; 125 g ai/ha, Preemergence, visual injury rating after approximately 10 d, read-out: Barnyardgrass plant response rating (0 to 100 scale, 0 is no effect, 100 is complete control)): 90% | pest or weed control at 500 g/ha ([2]; 500 g ai/ha, preemergence, visual injury rating about 10 d after treatment, 0 to 100 scale (0 no effect, 100 complete control), read-out: Barnyardgrass plant response rating): 90% | pest or weed control at 125 g/ha ([3]; 125 g ai/ha, Preemergence, visual injury rating after approximately 10 d, read-out: Foxtail, Giant plant response rating (0 to 100 scale, 0 is no effect, 100 is complete control)): 90% | pest or weed control at 500 g/ha ([3]; 500 g ai/ha, preemergence, visual injury rating about 10 d after treatment, 0 to 100 scale (0 no effect, 100 complete control), read-out: Foxtail, Giant plant response rating): 90% | pest or weed control at 125 g/ha ([4]; 125 g ai/ha, Preemergence, visual injury rating after approximately 10 d, read-out: Pigweed plant response rating (0 to 100 scale, 0 is no effect, 100 is complete control)): 30% | pest or weed control at 500 g/ha ([4]; 500 g ai/ha, preemergence, visual injury rating about 10 d after treatment, 0 to 100 scale (0 no effect, 100 complete control), read-out: Pigweed plant response rating): 80% | pest or weed control at 125 g/ha ([5]; 125 g ai/ha, Preemergence, visual injury rating after approximately 10 d, read-out: Ragweed plant response rating (0 to 100 scale, 0 is no effect, 100 is complete control)): 0% | pest or weed control at 500 g/ha ([5]; 500 g ai/ha, preemergence, visual injury rating about 10 d after treatment, 0 to 100 scale (0 no effect, 100 complete control), read-out: Ragweed plant response rating): 40% | pest or weed control at 125 g/ha ([6]; 125 g ai/ha, Preemergence, visual injury rating after approximately 10 d, read-out: Ryegrass, Italian plant response rating (0 to 100 scale, 0 is no effect, 100 is complete control)): 0% | pest or weed control at 500 g/ha ([6]; 500 g ai/ha, preemergence, visual injury rating about 10 d after treatment, 0 to 100 scale (0 no effect, 100 complete control), read-out: Ryegrass, Italian plant response rating): 70% | pest or weed control at 125 g/ha [7, 19]: 30% | pest or weed control at 500 g/ha [7, 20]: 60% | pest or weed control at 125 g/ha (Kochia (Kochia scoparia) [8]; [19]): 30% | pest or weed control at 500 g/ha (Kochia (Kochia scoparia) [8]; [20]): 50% | pest or weed control at 125 g/ha [9, 19]: 90% | pest or weed control at 500 g/ha [9, 20]: 90% | pest or weed control at 125 g/ha [10, 19]: 0% | pest or weed control at 500 g/ha [10, 20]: 50% | Corn plant response rating (crop injury, 0 = no effect, 100 = complete kill) at 125 g/ha (corn (Zea mays); [19]): 70% | Corn plant response rating (crop injury, 0 = no effect, 100 = complete kill) at 500 g/ha (corn (Zea mays); [20]): 90% | pest or weed control at 125 g/ha [11, 19]: 90% | pest or weed control at 500 g/ha [11, 20]: 90% | pest or weed control at 125 g/ha [12, 19]: 30% | pest or weed control at 500 g/ha [12, 20]: 60% | pest or weed control at 125 g/ha [13, 19]: 0% | pest or weed control at 500 g/ha [13, 20]: 30% | pest or weed control at 125 g/ha [14, 19]: 30% | pest or weed control at 500 g/ha [14, 20]: 60% | plant injury at 125 g/ha [15, 19]: 30% | plant injury at 500 g/ha [15, 20]: 50% | pest or weed control at 250 g/ha [16]: 65% | pest or weed control at 250 g/ha [17]: 90% | pest or weed control at 250 g/ha (rice (Oryra sativa)): 0% | pest or weed control at 250 g/ha [18]: 0%

From US12077503B2, “Substituted cyclic amides and their use as herbicides” (FMC CORPORATION, priority 2015, dated 2024)
